Test results taken from patent US7968744B2, “Physiological coolants based on lactoyl esters of menthyl lactate” (Renessenz, LLC, priority 2007, dated 2011).

System: mouth (panel of three flavorists)
Test: Sensory evaluation of cooling strength by a panel of three flavorists
Format: in vivo
Conditions: for Cooling strength score of reference standards: reference standards on the scale of 1 to 10, 10 being the strongest
Protocol: The sensory properties of crystalline MLL and liquid products that contain MLL (from Examples 1-5, above) are evaluated by a panel of three flavorists. The standard method involves holding an aqueous solution containing 20 ppm of coolant in the mouth for 30 seconds, then spitting it out and observing and quantifying the cooling effect when compared with a set of reference standards. Based on their cooling strength, the samples are scored on a scale of 1 to 10, with 10 being the strongest. Samples used as reference standards are to monomenthyl glutarate (3.5 on this scale), l-menthyl lactate (4.5) and N-ethyl-3-p-menthane carboxamide, i.e., WS-3 (10). Several coolant “cocktails,” i.e., liquid coolant-mixtures, are prepared, and their sensory properties are evaluated as in Example 6. The compositions and results appear in Table 2.

| Structure (SMILES) | Cooling strength score of reference standards | Score (cooling strength) (aqueous solution containing 20 ppm of coolant held in the mouth for 30 seconds, scale of 1 to 10, 10 being the strongest, Table 1) | Cooling strength compared with reference coolants (in words) (sensory evaluation) |
| --- | --- | --- | --- |
| CC(C)[C@@H]1CC[C@@H](C)C[C@H]1OC(=O)CCCC(=O)O [monomenthyl glutarate] | 3.5 |  |  |
| CC(C)[C@@H]1CC[C@@H](C)C[C@H]1OC(=O)[C@H](C)O [l-menthyl lactate] | 4.5 |  |  |
| CC(C)[C@@H]1CC[C@@H](C)C[C@H]1OC(=O)[C@H](C)OC(=O)[C@H](C)O [Example 6, l-menthyl L-lactoyl-L-lactate] |  | 4.0 | intermediate between that of l-menthyl lactate and monomenthyl glutarate |
| CCNC(=O)C1CC(C)CCC1C(C)C (centres unmarked) [WS-3, N-ethyl-3-p-menthane carboxamide] | 10 |  |  |
